In patent US5100907A, “Hydantoin esters” (Lonza, Inc., priority 1990, dated 1992):

Columns and labels:
Assay type in all cases: physicochemical
[1] = Total available formaldehyde (TF) and free formaldehyde (FF) levels of esters (I); settings: for FF (free formaldehyde) / TF (total available formaldehyde): neat ester, Table 3
Text: Thus, whether the formaldehyde content is chemically bonded to the hydantoin moiety or is free formaldehyde (FF) in solution, e.g., in water as formaldehyde or methylene glycol [CH2 (OH)2 ], it remains available for biocidal action. Due to this direct relation, the weight percent TF in a given preparation of the ester (I), e.g. a cosmetic formulation, can be predicted accurately, regardless of the level of dilution.

[2] = HLB determination (weighted average method)
Procedure, shortened: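 With test ester fixed at 1 wt.%, the ratio of sorbitan monostearate to POE 20 sorbitan monostearate was varied to emulsify 40:56 (wt.%) paraffin oil:water, mixed at 70°–80 °C and cooled below 30 °C with agitation. Emulsions were graded visually by droplet size; ester HLB was calculated by weighted average from the optimum emulsion.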

[3] = Physical properties of methylolated MHEDMH esters (I): viscosity; settings: at 25° C.
[4] = 1% active concentration in water

FF (free formaldehyde) [1]	TF (total available formaldehyde) [1]	Average HLB [2]	HLB Range [2]	Viscosity [3]	Calculated TF [1, 4]	Determined FF [1, 4]	Ratio FF/TF [1, 4]	TF ([1]; at a concentration of 1.0%)	SMILES
0.2 Wt. %	8.0 Wt. %	12.8	12-14						CCCCCCCCCCCC(=O)OCCN1C(=O)N(CO)C(=O)C1(C)C [Methylolated Lauric Ester, 2-(3-hydroxymethyl-5,5-dimethyl-1,3-diazacyclopentane-2,4-dion-1-yl)-ethylester of lauric acid]
0.2 Wt. %	6.5 Wt. %	15.0	14-16	501 cts	0.065 Wt. %	0.0112 Wt. %	0.172	0.4 wt. %	CCCCCCCC/C=C\CCCCCCCC(=O)OCCN1C(=O)N(CO)C(=O)C1(C)C [Methylolated Oleic Ester, 2-(3-hydroxymethyl-5,5-dimethyl-1,3-diazacyclopentane-2,4-dion-1-yl)-ethylester of oleic acid]
